Data reported in patent US7638532B2, “3-aryloxy-8-aza-bicyclo[3.2.1]oct-6-ene derivatives and their use as monoamine neurotransmitter re-uptake inhibitors” (NeuroSearch A/S, priority 2005, dated 2009).
Counter-ions that a name gives are not always drawn. Like-named read-outs stand apart in the source and are kept apart here.

What was measured:
[1] = target: T1, reuptake of noradrenaline (NA) in synaptosomes (Rattus norvegicus, UniProt Q9WTR4); assay: Inhibition of noradrenaline (NA) reuptake in synaptosomes; type: biochemical
T1 construct: in synaptosomes as described in WO 97/16451; from tissue
T1 sequence (Q9WTR4 1-597): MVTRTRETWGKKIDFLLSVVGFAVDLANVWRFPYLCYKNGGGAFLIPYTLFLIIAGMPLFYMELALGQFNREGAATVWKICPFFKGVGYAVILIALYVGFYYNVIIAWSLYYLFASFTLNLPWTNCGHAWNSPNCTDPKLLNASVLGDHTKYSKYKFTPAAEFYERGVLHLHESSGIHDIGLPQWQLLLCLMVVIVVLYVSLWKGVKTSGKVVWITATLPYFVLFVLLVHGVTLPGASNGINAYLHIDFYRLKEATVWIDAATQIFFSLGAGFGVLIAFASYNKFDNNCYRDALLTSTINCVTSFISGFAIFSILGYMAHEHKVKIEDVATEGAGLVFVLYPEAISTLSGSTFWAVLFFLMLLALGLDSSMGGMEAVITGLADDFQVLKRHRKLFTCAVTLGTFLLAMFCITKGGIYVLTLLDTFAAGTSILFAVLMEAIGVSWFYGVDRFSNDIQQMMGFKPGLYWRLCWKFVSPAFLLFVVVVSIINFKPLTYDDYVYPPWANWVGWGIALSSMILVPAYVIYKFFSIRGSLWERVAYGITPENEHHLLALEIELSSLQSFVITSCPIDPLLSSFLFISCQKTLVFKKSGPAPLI

[2] = target: T2, reuptake of serotonine (5-HT) in synaptosomes (Rattus norvegicus, UniProt P31652); assay: Inhibition of serotonine (5-HT) reuptake in synaptosomes; type: biochemical
T2 construct: in synaptosomes as described in WO 97/16451; from tissue
T2 sequence (P31652 whole entry): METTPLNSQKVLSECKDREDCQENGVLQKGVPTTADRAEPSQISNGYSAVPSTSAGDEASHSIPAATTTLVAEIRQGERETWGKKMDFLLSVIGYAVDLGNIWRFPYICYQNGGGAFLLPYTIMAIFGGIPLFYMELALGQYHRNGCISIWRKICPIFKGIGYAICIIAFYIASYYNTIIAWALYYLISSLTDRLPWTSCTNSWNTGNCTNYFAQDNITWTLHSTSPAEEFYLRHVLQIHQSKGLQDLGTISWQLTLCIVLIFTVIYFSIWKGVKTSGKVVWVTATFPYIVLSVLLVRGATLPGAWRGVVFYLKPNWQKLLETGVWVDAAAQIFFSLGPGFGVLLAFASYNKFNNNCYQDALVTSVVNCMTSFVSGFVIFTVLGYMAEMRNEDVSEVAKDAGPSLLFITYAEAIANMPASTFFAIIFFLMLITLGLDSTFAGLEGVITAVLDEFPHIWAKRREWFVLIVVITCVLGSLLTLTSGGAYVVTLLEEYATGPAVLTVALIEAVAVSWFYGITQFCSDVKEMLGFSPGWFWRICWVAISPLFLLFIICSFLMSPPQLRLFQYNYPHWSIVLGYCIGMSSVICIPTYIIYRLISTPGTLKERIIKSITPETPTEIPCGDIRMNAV

[3] = target: T3, reuptake of dopamine (DA) in synaptosomes (Rattus norvegicus, UniProt P23977); assay: Inhibition of dopamine (DA) reuptake in synaptosomes; type: biochemical
T3 construct: in synaptosomes as described in WO 97/16451; from tissue
T3 sequence (P23977 whole entry): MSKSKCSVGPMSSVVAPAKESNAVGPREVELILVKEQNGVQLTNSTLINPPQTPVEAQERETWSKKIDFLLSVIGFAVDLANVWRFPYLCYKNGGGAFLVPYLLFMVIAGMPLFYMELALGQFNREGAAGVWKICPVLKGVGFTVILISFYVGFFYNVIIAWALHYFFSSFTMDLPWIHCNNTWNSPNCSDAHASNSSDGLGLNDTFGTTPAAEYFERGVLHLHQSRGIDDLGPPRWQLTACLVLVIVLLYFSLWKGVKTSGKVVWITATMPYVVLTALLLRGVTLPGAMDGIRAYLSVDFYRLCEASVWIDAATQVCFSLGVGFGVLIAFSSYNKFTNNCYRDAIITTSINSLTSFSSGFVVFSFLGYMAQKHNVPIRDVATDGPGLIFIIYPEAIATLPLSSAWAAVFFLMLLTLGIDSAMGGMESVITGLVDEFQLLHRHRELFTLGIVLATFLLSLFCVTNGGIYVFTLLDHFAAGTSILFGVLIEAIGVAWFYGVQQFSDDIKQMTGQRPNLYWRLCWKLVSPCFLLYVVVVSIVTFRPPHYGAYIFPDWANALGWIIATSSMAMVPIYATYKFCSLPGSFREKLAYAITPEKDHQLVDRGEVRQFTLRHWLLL

SMILES: Clc1ccc(O[C@@H]2C[C@H]3C=C[C@@H](C2)N3)cc1Cl [1st compound of method A, exo-3-(3,4-Dichloro-phenoxy)-8-aza-bicyclo[3.2.1]oct-6-ene hydrochloric acid salt]
- IC50 [1]: 27 nM
- IC50 [2]: 2.5 nM
- IC50 [3]: 220 nM

SMILES: Clc1ccc(O[C@@H]2C[C@H]3C=C[C@@H](C2)N3)cc1Br (as salt: hydrochloric acid salt) [2nd compound of method A, exo-3-(3-Bromo-4-chloro-phenoxy)-8-aza-bicyclo[3.2.1]oct-6-ene hydrochloric acid salt]
- melting point: 240 to 243 °C

SMILES: COc1ccc2cc(O[C@@H]3C[C@H]4C=C[C@@H](C3)N4C)ccc2c1 [3rd compound of method B, exo-3-(6-Methoxy-naphthalen-2-yloxy)-8-methyl-8-aza-bicyclo[3.2.1]oct-6-ene free base]
- IC50 ([1]; 3H-NA, synaptosomes, read-out: NA-uptake IC50): 170 nM
- IC50 ([2]; 3H-5-HT, synaptosomes, read-out: 5-HT-uptake IC50): 480 nM
- IC50 ([3]; 3H-DA, synaptosomes, read-out: DA-uptake IC50): 110 nM
- melting point: 240 °C (dec.)

SMILES: Clc1ccc(O[C@@H]2C[C@H]3C=C[C@@H](C2)N3)cc1Br [2nd compound of method A, exo-3-(3-Bromo-4-chloro-phenoxy)-8-aza-bicyclo[3.2.1]oct-6-ene hydrochloric acid salt]
- IC50 [1]: 110 nM
- IC50 [2]: 21 nM
- IC50 [3]: 170 nM

SMILES: Clc1ccc(O[C@@H]2C[C@H]3C=C[C@@H](C2)N3)cc1Cl (as salt: hydrochloric acid salt) [1st compound of method A, exo-3-(3,4-Dichloro-phenoxy)-8-aza-bicyclo[3.2.1]oct-6-ene hydrochloric acid salt]
- melting point: 200 °C (dec.)
